Test results taken from PubChem BioAssay AID248 (DTP/NCI, 2004).
Where “and” joins values, the source holds several entries; their conditions need not be identical. Identical values can stand only once. Inconclusive results and toxic doses are left out. No stated cut-off is given here; in the data, active means T/C of 150% or more; inactive means T/C below 125%.

Test system: L1210 leukemia ip in BDF1 mice, survival T/C
Assay: NCI In Vivo Anticancer Drug Screen. Data for tumor model L1210 Leukemia (intraperitoneal) in B6D2F1 (BDF1) mice
Conditions: endpoint: mean survival time, higher = longer survival
Method in brief: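 Tumor was transplanted into mice, which were then dosed with test compound or vehicle alone. Survival was recorded for each group, and the treated figure was expressed relative to the control figure.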

[1] = dose: 100.0 mg/kg/injection, schedule: Q01DX001 (ip), vehicle: saline
[2] = dose: 200.0 mg/kg/injection, schedule: Q01DX001 (ip), vehicle: saline
[3] = dose: 400.0 mg/kg/injection, schedule: Q01DX001 (ip), vehicle: saline
[4] = dose: 100.0 mg/kg/injection, schedule: Q04DX002 (ip), vehicle: Klucel (hydroxypropylcellulose) (HPC)
[5] = dose: 200.0 mg/kg/injection, schedule: Q04DX002 (ip), vehicle: Klucel (hydroxypropylcellulose) (HPC)
[6] = dose: 100.0 mg/kg/injection, schedule: Q01DX009 (ip), vehicle: Klucel (hydroxypropylcellulose) (HPC)
[7] = dose: 100.0 mg/kg/injection, schedule: Q04DX003 (ip), vehicle: Klucel (hydroxypropylcellulose) (HPC)
[8] = dose: 200.0 mg/kg/injection, schedule: Q01DX009 (ip), vehicle: Klucel (hydroxypropylcellulose) (HPC)
[9] = dose: 200.0 mg/kg/injection, schedule: Q04DX003 (ip), vehicle: Klucel (hydroxypropylcellulose) (HPC)
[10] = dose: 400.0 mg/kg/injection, schedule: Q01DX009 (ip), vehicle: Klucel (hydroxypropylcellulose) (HPC)
[11] = dose: 400.0 mg/kg/injection, schedule: Q04DX003 (ip), vehicle: Klucel (hydroxypropylcellulose) (HPC)
[12] = dose: 100.0 mg/kg/injection, schedule: Q04DX003 (ip), vehicle: saline with Tween-80
[13] = dose: 200.0 mg/kg/injection, schedule: Q04DX003 (ip), vehicle: saline with Tween-80
[14] = dose: 400.0 mg/kg/injection, schedule: Q04DX003 (ip), vehicle: saline with Tween-80
[15] = dose: 100.0 mg/kg/injection, schedule: Q01DX009 (ip), vehicle: saline with Tween-80
[16] = dose: 100.0 mg/kg/injection, schedule: Q04DX002 (ip), vehicle: saline with Tween-80
[17] = dose: 200.0 mg/kg/injection, schedule: Q04DX002 (ip), vehicle: saline with Tween-80
[18] = dose: 400.0 mg/kg/injection, schedule: Q04DX002 (ip), vehicle: saline with Tween-80

Measured: T/C

CC12CCC3c4ccc(OC(=O)Cc5ccc(N(CCCl)CCCl)cc5)cc4CCC3C1CCC2=O (centres undefined)
inactive: dose: 100.0 mg/kg/injection, schedule: Q01DX001 (sc), vehicle: steriod suspending solution 97 % of control | dose: 200.0 mg/kg/injection, schedule: Q01DX001 (sc), vehicle: steriod suspending solution 103 % of control | dose: 400.0 mg/kg/injection, schedule: Q01DX001 (sc), vehicle: steriod suspending solution 103 % of control

SC1c2ccccc2-c2ccc(Br)cc21 (centres undefined)
inactive: [1] 101 % of control | [2] 99 % of control | [3] 97 % of control

O=C(c1ccccn1)C(O)c1ccccn1 (centres undefined)
inactive: dose: 50.0 mg/kg/injection, schedule: Q04DX002 (ip), vehicle: Klucel (hydroxypropylcellulose) (HPC) 96 % of control | [4] 99 % of control | [5] 96 % of control

CN(C)c1ccnc(SCc2ccc(Cl)cc2Cl)n1
inactive: dose: 25.0 mg/kg/injection, schedule: Q01DX Z (ip), vehicle: methylcellulose (MC) 92 % of control | dose: 50.0 mg/kg/injection, schedule: Q01DX Z (ip), vehicle: methylcellulose (MC) 94 % of control

COC1OCC(O)C(NC(C)=O)C1O (centres undefined)
inactive: [1] 105 % of control | [2] 107 % of control | [3] 100 % of control

Cc1ccc(C(C)C)c(Oc2cc(C)ccc2C(C)C)c1
inactive: [6] 98 % of control | [7] 97 % of control | [8] 102 % of control | [9] 93 % of control | [10] 108 % of control | [11] 93 % of control

Cc1cccc(SC(=O)Nc2ccccc2C(F)(F)F)c1
inactive: dose: 25.0 mg/kg/injection, schedule: Q01DX009 (ip), vehicle: Klucel (hydroxypropylcellulose) (HPC) 103 % of control | dose: 50.0 mg/kg/injection, schedule: Q01DX009 (ip), vehicle: Klucel (hydroxypropylcellulose) (HPC) 94 % of control | [6] 97 % of control and 102 % of control | [7] 98 % of control | [9] 109 % of control | [11] 93 % of control

C#CC(=O)CCCCCCl
inactive: dose: 6.25 mg/kg/injection, schedule: Q01DX009 (sc), vehicle: olive oil, sesame oil, peanut oil 100 % of control | dose: 12.5 mg/kg/injection, schedule: Q01DX009 (sc), vehicle: olive oil, sesame oil, peanut oil 94 % of control | dose: 12.5 mg/kg/injection, schedule: Q04DX002 (sc), vehicle: olive oil, sesame oil, peanut oil 103 % of control | dose: 25.0 mg/kg/injection, schedule: Q01DX009 (sc), vehicle: olive oil, sesame oil, peanut oil 97 % of control | dose: 25.0 mg/kg/injection, schedule: Q04DX002 (sc), vehicle: olive oil, sesame oil, peanut oil 95 % of control

NNC(=O)CCCO
inactive: [12] 103 % of control | [13] 98 % of control | [14] 101 % of control

C(Cc1ccccc1)=C1SCCCS1
inactive: [12] 99 % of control | [13] 96 % of control | [14] 96 % of control

O=C(O)CC(SC(c1ccccc1)(c1ccccc1)c1ccccc1)C(=O)O (centres undefined)
inactive: [6] 93 % of control | [7] 98 % of control | [8] 90 % of control | [9] 102 % of control | [11] 96 % of control

COc1ccc2c(c1OC(C)=O)-c1cc(O)cc3c1C(C2)N(C(=O)CN(CCO)CCO)CC3 (centres undefined)
inactive: dose: 25.0 mg/kg/injection, schedule: Q04DX003 (ip), vehicle: DMSO 104 % of control | dose: 50.0 mg/kg/injection, schedule: Q04DX003 (ip), vehicle: DMSO 93 % of control | dose: 100.0 mg/kg/injection, schedule: Q04DX003 (ip), vehicle: DMSO 89 % of control | dose: 200.0 mg/kg/injection, schedule: Q04DX003 (ip), vehicle: DMSO 104 % of control | dose: 400.0 mg/kg/injection, schedule: Q04DX003 (ip), vehicle: DMSO 97 % of control

CCC(CC)NCC(C)(C)O
inactive: dose: 75.0 mg/kg/injection, schedule: Q01DX001 (ip), vehicle: acid diluted with saline 115 % of control | dose: 150.0 mg/kg/injection, schedule: Q01DX001 (ip), vehicle: acid diluted with saline 110 % of control

C(=NCC(CCN1CCCCC1)(CCN1CCCCC1)c1cccc2ccccc12)C(CCN1CCCCC1)(CCN1CCCCC1)c1cccc2ccccc12
inactive: dose: 5.0 mg/kg/injection, schedule: Q04DX003 (ip), vehicle: Klucel (hydroxypropylcellulose) (HPC) 119 % of control | dose: 10.0 mg/kg/injection, schedule: Q04DX003 (ip), vehicle: Klucel (hydroxypropylcellulose) (HPC) 114 % of control | dose: 20.0 mg/kg/injection, schedule: Q04DX003 (ip), vehicle: Klucel (hydroxypropylcellulose) (HPC) 110 % of control

O=C(NC(=O)c1ccc([N+](=O)[O-])cc1)OCCCl
inactive: dose: 100.0 mg/kg/injection, schedule: Q01DX001 (ip), vehicle: Klucel (hydroxypropylcellulose) (HPC) 92 % of control | dose: 200.0 mg/kg/injection, schedule: Q01DX001 (ip), vehicle: Klucel (hydroxypropylcellulose) (HPC) 97 % of control | dose: 400.0 mg/kg/injection, schedule: Q01DX001 (ip), vehicle: Klucel (hydroxypropylcellulose) (HPC) 105 % of control

S=C1NC2(CCCCC2)C2=C(CCCC2)S1
inactive: [12] 100 % of control | [13] 88 % of control | [14] 96 % of control

O=C1c2cccc3c2C2(O)c4c1cccc4C(=O)c1cccc(c12)C3=O
inactive: [15] 101 % of control | [12] 96 % of control | dose: 132.0 mg/kg/injection, schedule: Q01DX009 (ip), vehicle: saline 101 % of control | dose: 200.0 mg/kg/injection, schedule: Q01DX009 (ip), vehicle: saline 101 % of control | [13] 100 % of control | dose: 300.0 mg/kg/injection, schedule: Q01DX009 (ip), vehicle: saline 95 % of control | [14] 102 % of control

CCCCN(CCCC)CC(O)c1cc(-c2ccc(C(F)(F)F)cc2)nc2c(Cl)cc(Cl)cc12 (centres undefined)
inactive: [16] 100 % of control | [17] 92 % of control | [18] 95 % of control

CCOC(=O)c1cnc(SCC)nc1SC#N
inactive: dose: 100.0 mg/kg/injection, schedule: Q01DX009 (ip), vehicle: gum acacia 105 % of control | dose: 100.0 mg/kg/injection, schedule: Q04DX003 (ip), vehicle: gum acacia 105 % of control | dose: 200.0 mg/kg/injection, schedule: Q01DX009 (ip), vehicle: gum acacia 106 % of control | dose: 200.0 mg/kg/injection, schedule: Q04DX003 (ip), vehicle: gum acacia 97 % of control | dose: 400.0 mg/kg/injection, schedule: Q01DX009 (ip), vehicle: gum acacia 97 % of control | dose: 400.0 mg/kg/injection, schedule: Q04DX003 (ip), vehicle: gum acacia 97 % of control

CCC(C(O)c1ccccc1)C(O)(C(F)(F)F)C(F)(F)F (centres undefined)
inactive: dose: 75.0 mg/kg/injection, schedule: Q01DX009 (ip), vehicle: saline with Tween-80 100 % of control | dose: 150.0 mg/kg/injection, schedule: Q01DX009 (ip), vehicle: saline with Tween-80 106 % of control | dose: 300.0 mg/kg/injection, schedule: Q01DX009 (ip), vehicle: saline with Tween-80 103 % of control

COc1ccc(C2C3C=CC(C3)C2C(=O)O)cc1 (centres undefined)
inactive: [15] 97 % of control | [12] 93 % of control | dose: 200.0 mg/kg/injection, schedule: Q01DX009 (ip), vehicle: saline with Tween-80 93 % of control | dose: 400.0 mg/kg/injection, schedule: Q01DX009 (ip), vehicle: saline with Tween-80 95 % of control | [14] 91 % of control

O=C(O)C(Br)C(Br)C(=O)Nc1cccc(Cl)c1 (centres undefined)
inactive: [16] 91 % of control | [17] 95 % of control | [18] 88 % of control

CN(C)c1ccc(C=C(C#N)C#N)cc1
inactive: [6] 100 % of control | [7] 96 % of control and 98 % of control | [8] 105 % of control | [9] 97 % of control and 102 % of control | [10] 94 % of control | [11] 93 % of control and 92 % of control

O=C(O)c1cc(I)cc(Br)c1I
inactive: [4] 102 % of control | [5] 110 % of control | dose: 400.0 mg/kg/injection, schedule: Q04DX002 (ip), vehicle: Klucel (hydroxypropylcellulose) (HPC) 105 % of control

O=C(O)c1cc2ccccc2c2cc(Br)ccc12
inactive: dose: 100.0 mg/kg/injection, schedule: Q01DX009 (ip), vehicle: saline sonified 100 % of control | [7] 91 % of control | dose: 200.0 mg/kg/injection, schedule: Q01DX009 (ip), vehicle: saline sonified 97 % of control | [9] 108 % of control | [11] 103 % of control
